What was measured:
Type in all cases: in vivo
Conditions in all cases: post-emergence spray at 4-5 leaf stage, 250 g/ha active ingredient with 450 kg/ha water, rated after 3 weeks in greenhouse
Indian mallow = experiment: weed control effect in post-emergence stage (Table 1); parameters: key: Level 10: completely dead; Level 9: above 95% growth control rate; Level 8: above 90% growth control rate; Level 7: above 80% growth control rate; Level 6: above 70% growth control rate; Level 5: above 60% growth control rate; Level 4: above 50% growth control rate; Level 3: above 20% growth control rate; Level 2: 5%-20% growth control rate; Level 1: below 5% growth control rate
Procedure: (§1) The activity level standard of harmful plant destruction (i.e. growth control rate) is as follows: The above described growth control rate is fresh weight control rate. Monocotyledonous and dicotyledonous weed seeds and main crop seeds (i.e. wheat, corn, rice, soybean, cotton, oilseed, millet and sorghum.) were put into a plastic pot loaded with soil. Then covered with 0.5-2 cm soil, the seeds were allowed to grow in good greenhouse environment. The test plants were treated at 4-5 leaf stage 2-3 weeks after sowing. The test compounds of the invention were dissolved with acetone respectively, then added with 80 tween and diluted by certain amount of water to certain concentration. The solution was sprayed to the plants with a sprayer. Then the plants were cultured for 3 weeks in the greenhouse.

bidens bipinnata = experiment: as above; parameters: key: Level 10: completely dead; Level 9: above 95% growth control rate; Level 8: above 90% growth control rate; Level 7: above 80% growth control rate; Level 6: above 70% growth control rate; Level 5: above 60% growth control rate; Level 4: above 50% growth control rate; Level 3: above 20% growth control rate; Level 2: 5%-20% growth control rate; Level 1: below 5% growth control rate
Procedure: as §1

crab grass = experiment: as above; parameters: key: Level 10: completely dead; Level 9: above 95% growth control rate; Level 8: above 90% growth control rate; Level 7: above 80% growth control rate; Level 6: above 70% growth control rate; Level 5: above 60% growth control rate; Level 4: above 50% growth control rate; Level 3: above 20% growth control rate; Level 2: 5%-20% growth control rate; Level 1: below 5% growth control rate
Procedure: as §1

echinochloa = experiment: as above; parameters: key: Level 10: completely dead; Level 9: above 95% growth control rate; Level 8: above 90% growth control rate; Level 7: above 80% growth control rate; Level 6: above 70% growth control rate; Level 5: above 60% growth control rate; Level 4: above 50% growth control rate; Level 3: above 20% growth control rate; Level 2: 5%-20% growth control rate; Level 1: below 5% growth control rate
Procedure: as §1

foxtail = experiment: as above; parameters: key: Level 10: completely dead; Level 9: above 95% growth control rate; Level 8: above 90% growth control rate; Level 7: above 80% growth control rate; Level 6: above 70% growth control rate; Level 5: above 60% growth control rate; Level 4: above 50% growth control rate; Level 3: above 20% growth control rate; Level 2: 5%-20% growth control rate; Level 1: below 5% growth control rate
Procedure: as §1

rorippa indica = experiment: as above; parameters: key: Level 10: completely dead; Level 9: above 95% growth control rate; Level 8: above 90% growth control rate; Level 7: above 80% growth control rate; Level 6: above 70% growth control rate; Level 5: above 60% growth control rate; Level 4: above 50% growth control rate; Level 3: above 20% growth control rate; Level 2: 5%-20% growth control rate; Level 1: below 5% growth control rate
Procedure: as §1

wheat = experiment: post-emergence stage experiment, crop (Table 1)
Procedure: as §1

rice = experiment: post-emergence stage experiment, crop (Table 1)
Procedure: as §1

`CC(=O)N(CCCOC(C)C)c1c(C(F)(F)F)ccc(C(=O)c2c(C)nn(C)c2O)c1Cl` [Compound 010] was tested. Which “weed control effect, Indian mallow (level)” value (Indian mallow) did it give?
Its value is 0.

What about the “weed control effect, Bidens bipinnata (level)” value (bidens bipinnata) of the same compound?
Its value is 5 (Level 5: above 60% growth control rate).

What about the “weed control effect, Crab grass (level)” value (crab grass) of the same compound?
The value was 1 (Level 1: below 5% growth control rate).

What about the “weed control effect, Echinochloa (level)” value (echinochloa) of the same compound?
The value was 6 (Level 6: above 70% growth control rate).

What about the “weed control effect, Green foxtail (level)” value (foxtail) of the same compound?
The value was 5 (Level 5: above 60% growth control rate).

What about the “weed control effect, Rorippa indica (level)” value (rorippa indica) of the same compound?
The value was 0.

What about the “effect on crop, Wheat (level)” value (wheat) of the same compound?
Its value is 0.

What about the “effect on crop, Rice (level)” value (rice) of the same compound?
The value was 0.

For `COCCOCCCN(C(C)=O)c1c(C(F)(F)F)ccc(C(=O)c2c(C)nn(C)c2O)c1Cl` [Compound 012], which “weed control effect, Indian mallow (level)” value (Indian mallow) is on record?
Its value is 10.

And the “weed control effect, Bidens bipinnata (level)” value (bidens bipinnata)?
Its value is 10.

And the “weed control effect, Crab grass (level)” value (crab grass)?
The value was 1 (Level 1: below 5% growth control rate).

What about the “weed control effect, Echinochloa (level)” value (echinochloa) of the same compound?
The value was 9 (Level 9: above 95% growth control rate).

And the “weed control effect, Green foxtail (level)” value (foxtail)?
The value was 2 (Level 2: 5%-20% growth control rate).

What about the “weed control effect, Rorippa indica (level)” value (rorippa indica) of the same compound?
Its value is 0.

What about the “effect on crop, Wheat (level)” value (wheat) of the same compound?
Its value is 0.

And the “effect on crop, Rice (level)” value (rice)?
The value was 0.

With `CC(=O)N(C)c1c(C(F)(F)F)ccc(C(=O)c2c(C)nn(C)c2O)c1Cl` [Compound 004] as the compound, how does the “weed control effect, Indian mallow (level)” value (Indian mallow) read?
The value was 9 (Level 9: above 95% growth control rate).

And the “weed control effect, Bidens bipinnata (level)” value (bidens bipinnata)?
Its value is 9 (Level 9: above 95% growth control rate).

What about the “weed control effect, Crab grass (level)” value (crab grass) of the same compound?
Its value is 4 (Level 4: above 50% growth control rate).

And the “weed control effect, Echinochloa (level)” value (echinochloa)?
The value was 4 (Level 4: above 50% growth control rate).

What about the “weed control effect, Green foxtail (level)” value (foxtail) of the same compound?
The value was 1 (Level 1: below 5% growth control rate).

And the “weed control effect, Rorippa indica (level)” value (rorippa indica)?
The value was 9 (Level 9: above 95% growth control rate).

What about the “effect on crop, Wheat (level)” value (wheat) of the same compound?
The value was 0.

What about the “effect on crop, Rice (level)” value (rice) of the same compound?
The value was 5 (Level 5: above 60% growth control rate).

How did the “weed control effect, Indian mallow (level)” value (Indian mallow) turn out when `Cc1nn(C)c(O)c1C(=O)c1ccc(C(F)(F)F)c(N2CCCC2=O)c1Cl` [Compound 018] was run?
The value was 9 (Level 9: above 95% growth control rate).

And the “weed control effect, Bidens bipinnata (level)” value (bidens bipinnata)?
The value was 10.

What about the “weed control effect, Crab grass (level)” value (crab grass) of the same compound?
Its value is 10.

What about the “weed control effect, Echinochloa (level)” value (echinochloa) of the same compound?
Its value is 8 (Level 8: above 90% growth control rate).

And the “weed control effect, Green foxtail (level)” value (foxtail)?
The value was 10.

And the “weed control effect, Rorippa indica (level)” value (rorippa indica)?
Its value is 10.

What about the “effect on crop, Wheat (level)” value (wheat) of the same compound?
Its value is 3 (Level 3: above 20% growth control rate).

What does the source list for `Cc1nn(C)c(O)c1C(=O)c1ccc(C(F)(F)F)c(-n2cc(Cl)cn2)c1Cl` [Compound 095]?
weed control effect, Indian mallow (level) (Indian mallow): 0; weed control effect, Crab grass (level) (crab grass): 1 (Level 1: below 5% growth control rate); weed control effect, Echinochloa (level) (echinochloa): 1 (Level 1: below 5% growth control rate); weed control effect, Green foxtail (level) (foxtail): 1 (Level 1: below 5% growth control rate); weed control effect, Rorippa indica (level) (rorippa indica): 0; effect on crop, Wheat (level) (wheat): 0; effect on crop, Rice (level) (rice): 6 (Level 6: above 70% growth control rate)

How did the “weed control effect, Indian mallow (level)” value (Indian mallow) turn out when `CCCCN(C(C)=O)c1c(C(F)(F)F)ccc(C(=O)c2c(C)nn(C)c2O)c1Cl` [Compound 006] was run?
The value was 0.

And the “weed control effect, Bidens bipinnata (level)” value (bidens bipinnata)?
The value was 5 (Level 5: above 60% growth control rate).

What about the “weed control effect, Crab grass (level)” value (crab grass) of the same compound?
The value was 2 (Level 2: 5%-20% growth control rate).

And the “weed control effect, Echinochloa (level)” value (echinochloa)?
Its value is 10.

And the “weed control effect, Green foxtail (level)” value (foxtail)?
Its value is 3 (Level 3: above 20% growth control rate).

What about the “weed control effect, Rorippa indica (level)” value (rorippa indica) of the same compound?
The value was 5 (Level 5: above 60% growth control rate).

And the “effect on crop, Wheat (level)” value (wheat)?
The value was 0.

What about the “effect on crop, Rice (level)” value (rice) of the same compound?
The value was 1 (Level 1: below 5% growth control rate).

What does the source list for `CCOCCCN(C(C)=O)c1c(C(F)(F)F)ccc(C(=O)c2c(C)nn(C)c2O)c1Cl` [Compound 009]?
weed control effect, Indian mallow (level) (Indian mallow): 2 (Level 2: 5%-20% growth control rate); weed control effect, Bidens bipinnata (level) (bidens bipinnata): 5 (Level 5: above 60% growth control rate); weed control effect, Crab grass (level) (crab grass): 1 (Level 1: below 5% growth control rate); weed control effect, Echinochloa (level) (echinochloa): 10; weed control effect, Green foxtail (level) (foxtail): 9 (Level 9: above 95% growth control rate); weed control effect, Rorippa indica (level) (rorippa indica): 0; effect on crop, Wheat (level) (wheat): 0; effect on crop, Rice (level) (rice): 5 (Level 5: above 60% growth control rate)

How did the “weed control effect, Indian mallow (level)” value (Indian mallow) turn out when `Cc1cnn(-c2c(C(F)(F)F)ccc(C(=O)c3c(C)nn(C)c3O)c2Cl)c1` [Compound 084] was run?
The value was 10.

What about the “weed control effect, Bidens bipinnata (level)” value (bidens bipinnata) of the same compound?
Its value is 10.

What about the “weed control effect, Crab grass (level)” value (crab grass) of the same compound?
Its value is 8 (Level 8: above 90% growth control rate).

And the “weed control effect, Echinochloa (level)” value (echinochloa)?
Its value is 10.

What about the “weed control effect, Green foxtail (level)” value (foxtail) of the same compound?
Its value is 10.

And the “weed control effect, Rorippa indica (level)” value (rorippa indica)?
The value was 9 (Level 9: above 95% growth control rate).

And the “effect on crop, Wheat (level)” value (wheat)?
Its value is 0.

What about the “effect on crop, Rice (level)” value (rice) of the same compound?
Its value is 7 (Level 7: above 80% growth control rate).

`CCCCOCCCN(C(C)=O)c1c(C(F)(F)F)ccc(C(=O)c2c(C)nn(C)c2O)c1Cl` [Compound 011] was tested. Which “weed control effect, Indian mallow (level)” value (Indian mallow) did it give?
Its value is 0.

And the “weed control effect, Bidens bipinnata (level)” value (bidens bipinnata)?
Its value is 5 (Level 5: above 60% growth control rate).

And the “weed control effect, Crab grass (level)” value (crab grass)?
Its value is 1 (Level 1: below 5% growth control rate).

What about the “weed control effect, Echinochloa (level)” value (echinochloa) of the same compound?
The value was 1 (Level 1: below 5% growth control rate).

And the “weed control effect, Green foxtail (level)” value (foxtail)?
The value was 1 (Level 1: below 5% growth control rate).

What about the “weed control effect, Rorippa indica (level)” value (rorippa indica) of the same compound?
Its value is 0.

And the “effect on crop, Wheat (level)” value (wheat)?
The value was 0.

And the “effect on crop, Rice (level)” value (rice)?
Its value is 0.

Which results are given for `Cc1nn(C)c(O)c1C(=O)c1ccc(C(F)(F)F)c(-n2ccnc2)c1Cl` [Compound 063]?
weed control effect, Indian mallow (level) (Indian mallow): 10; weed control effect, Bidens bipinnata (level) (bidens bipinnata): 10; weed control effect, Crab grass (level) (crab grass): 0; weed control effect, Echinochloa (level) (echinochloa): 1 (Level 1: below 5% growth control rate); weed control effect, Green foxtail (level) (foxtail): 1 (Level 1: below 5% growth control rate); weed control effect, Rorippa indica (level) (rorippa indica): 9 (Level 9: above 95% growth control rate); effect on crop, Wheat (level) (wheat): 0

For `Cc1cc(C)n(-c2c(C(F)(F)F)ccc(C(=O)c3c(C)nn(C)c3O)c2Cl)n1` [Compound 093], which “weed control effect, Indian mallow (level)” value (Indian mallow) is on record?
Its value is 5 (Level 5: above 60% growth control rate).

And the “weed control effect, Bidens bipinnata (level)” value (bidens bipinnata)?
Its value is 5 (Level 5: above 60% growth control rate).

And the “weed control effect, Crab grass (level)” value (crab grass)?
Its value is 2 (Level 2: 5%-20% growth control rate).

And the “weed control effect, Echinochloa (level)” value (echinochloa)?
The value was 5 (Level 5: above 60% growth control rate).

What about the “weed control effect, Green foxtail (level)” value (foxtail) of the same compound?
The value was 2 (Level 2: 5%-20% growth control rate).

What about the “weed control effect, Rorippa indica (level)” value (rorippa indica) of the same compound?
The value was 0.

What about the “effect on crop, Wheat (level)” value (wheat) of the same compound?
Its value is 0.

And the “effect on crop, Rice (level)” value (rice)?
The value was 0.

From patent US11076594B2, “Pyrazolone compound or salt thereof, preparation method therefor, herbicide composition and use thereof” (QINGDAO KINGAGROOT CHEMICAL COMPOUNDS CO., LTD., priority 2015, dated 2021)
